Bridge positions count the residues as written; N and C are the ends. Square brackets hold non-standard residues; d marks the D form. Peptide text beside a SMILES is read from it. hArg = N=C(N)NCCCC[C@H](N)C(=O)O; Ac5c = NC1(C(=O)O)CCCC1; Nva = CCC[C@H](N)C(=O)O; Abu = CC[C@H](N)C(=O)O; Aib = CC(C)(N)C(=O)O
Target: T1, Saos-2 PTH1R (Homo sapiens, UniProt Q03431)
T1 construct: endogenous in cells; host or cells: Saos-2
T1 sequence (Q03431 27-593): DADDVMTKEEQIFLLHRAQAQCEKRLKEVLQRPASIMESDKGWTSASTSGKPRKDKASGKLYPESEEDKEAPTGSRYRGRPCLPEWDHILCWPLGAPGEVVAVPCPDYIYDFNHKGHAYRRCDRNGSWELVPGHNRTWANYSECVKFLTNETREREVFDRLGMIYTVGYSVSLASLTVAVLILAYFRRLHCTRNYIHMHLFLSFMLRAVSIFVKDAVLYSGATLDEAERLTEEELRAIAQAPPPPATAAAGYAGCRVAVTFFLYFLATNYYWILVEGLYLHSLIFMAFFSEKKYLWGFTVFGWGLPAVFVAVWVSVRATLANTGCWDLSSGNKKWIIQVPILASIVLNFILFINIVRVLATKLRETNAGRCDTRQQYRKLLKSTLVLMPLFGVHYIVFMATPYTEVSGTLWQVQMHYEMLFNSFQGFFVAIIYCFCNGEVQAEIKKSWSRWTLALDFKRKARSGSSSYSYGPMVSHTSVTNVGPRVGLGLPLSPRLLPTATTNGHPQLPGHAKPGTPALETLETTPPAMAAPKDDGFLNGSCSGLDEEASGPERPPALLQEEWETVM
Test: cAMP-efficacy assay in Saos-2 cells
Assay type: cell-based
Settings: for EC50: cAMP, 100 μM IBMX, 37° C. 15 min, suffix of label = salt tested; for Emax ± SEM: relative effect to the control (SEQ ID NO: 32)
Protocol: Peptides were dissolved in phosphate buffered saline and further diluted in Tyrode's buffer (TB, Sigma-Aldrich) containing 0.1% BSA and 100 μM isobutyl-methyl-xanthine (IBMX, Sigma-Aldrich). Saos-2 cells were seeded at 50,000 cells/well in 96-microtiter plates and grown for two days before the efficacy assays. On the day of analysis, the growth medium was carefully removed by suction. Cells were washed once with 200 μl TB/0.1% BSA. The buffer was replaced with 100 μl reaction mixture (±test peptide), and incubated at 37° C. for 15 min. The reaction was stopped by addition of 25 μl of ice-cold 0.5 M HCl. Cells were in the following incubated on ice for 60 min. 75 μl acetate-buffer, pH6.2, was added to each well of a 96-well cAMP FlashPlate (Perkin-Elmer). […] FlashPlates were incubated overnight at 4° C., emptied by suction and counted in a TopCounter (Packard).
Determinations were performed in single determinations or triplicates at all doses. […] Standards were included as single determinations, duplicates or triplicates in each experiment, preferentially on each plate.
Concentration-dependent cAMP responses were imported into GraphPad Prism vers. 4 (GraphPad Software), transformed and plotted. […] Thus, a four-parameter logistic equation was used for determination of the EC50 values. Curves were fitted with a function for sigmoidal dose response curve (variable slope) non-linear fit Y=Bottom+(Top-Bottom)/(1+10̂((LogEC50−X)*HillSlope)) where X is the logarithm of concentration and Y is the response. Y starts at Bottom and goes to Top with a sigmoid shape. pEC50, Hill-coefficient and the maximally inducible concentration of cAMP (Emax) were evaluated.
Overall statistical differences were analyzed with Statistica (Statsoft) using one-way ANOVA. Post-hoc comparisons were made by the use of Fisher's Least Significance Test. Results were considered significant, when p was lower than 0.05.

In the case of CC[C@H](C)[C@H](NC(=O)[C@H](CCC(=O)O)NC(=O)C1(NC(=O)[C@@H](NC(=O)C2(N)CCCC2)C(C)C)CCCC1)C(=O)N[C@@H](CCC(N)=O)C(=O)N[C@@H](CC(C)C)C(=O)N[C@@H](CC(C)C)C(=O)N[C@@H](Cc1c[nH]cn1)C(=O)N[C@@H](CCC(N)=O)C(=O)N[C@@H](CCCCNC(=N)N)C(=O)N[C@@H](C)C(=O)N[C@H]1CCCCNC(=O)C[C@@H](C(N)=O)NC(=O)[C@H](CC(N)=O)NC(=O)[C@H](CC(C)C)NC(=O)[C@H](Cc2c[nH]c3ccccc23)NC1=O [SEQ ID NO: 14, H-Ac5c-Val-Ac5c-Glu-Ile-Gln-Leu-Leu-His-Gln-Har-Ala-Lys( )-Trp-Leu-Asn-Asp( )-NH2] (H-[Ac5c]V[Ac5c]EIQLLHQ[hArg]AKWLND-NH2; lactam 13-17), the EC50 is reported as 35.5 nM and the “Emax ± SEM” value is reported as 1.03 ± 0.05.

CC[C@H](NC(=O)[C@@H](NC(=O)C1(N)CCCC1)C(C)C)C(=O)N[C@@H](CCC(=O)O)C(=O)N[C@H](C(=O)N[C@@H](CCC(N)=O)C(=O)N[C@@H](CC(C)C)C(=O)N[C@@H](CC(C)C)C(=O)N[C@@H](Cc1c[nH]cn1)C(=O)N[C@@H](CCC(N)=O)C(=O)N[C@@H](CCCCNC(=N)N)C(=O)N[C@@H](C)C(=O)N[C@H]1CCCCNC(=O)C[C@@H](C(N)=O)NC(=O)[C@H](CC(N)=O)NC(=O)[C@H](CC(C)C)NC(=O)[C@H](Cc2c[nH]c3ccccc23)NC1=O)[C@@H](C)CC [SEQ ID NO: 15, H-Ac5c-Val-Abu-Glu-Ile-Gln-Leu-Leu-His-Gln-Har-Ala-Lys( )-Trp-Leu-Asn-Asp( )-NH2] (H-[Ac5c]V[Abu]EIQLLHQ[hArg]AKWLND-NH2; lactam 13-17) was tested, and the EC50 was 60.3 nM and the “Emax ± SEM” value was 1.04 ± 0.03.

In the case of CCC[C@H](NC(=O)[C@@H](NC(=O)C1(N)CCCC1)C(C)C)C(=O)N[C@@H](CCC(=O)O)C(=O)N[C@H](C(=O)N[C@@H](CCC(N)=O)C(=O)N[C@@H](CC(C)C)C(=O)N[C@@H](CC(C)C)C(=O)N[C@@H](Cc1c[nH]cn1)C(=O)N[C@@H](CCC(N)=O)C(=O)N[C@@H](CCCCNC(=N)N)C(=O)N[C@@H](C)C(=O)N[C@H]1CCCCNC(=O)C[C@@H](C(N)=O)NC(=O)[C@H](CC(N)=O)NC(=O)[C@H](CC(C)C)NC(=O)[C@H](Cc2c[nH]c3ccccc23)NC1=O)[C@@H](C)CC [SEQ ID NO: 16, H-Ac5c-Val-Nva-Glu-Ile-Gln-Leu-Leu-His-Gln-Har-Ala-Lys( )-Trp-Leu-Asn-Asp( )-NH2] (H-[Ac5c]V[Nva]EIQLLHQ[hArg]AKWLND-NH2; lactam 13-17), the EC50 is reported as 120 nM and the “Emax ± SEM” value is reported as 1.03 ± 0.04.

For CC[C@H](C)[C@H](NC(=O)[C@H](CCC(=O)O)NC(=O)C(C)(C)NC(=O)[C@@H](NC(=O)C1(N)CCCC1)C(C)C)C(=O)N[C@@H](CCC(N)=O)C(=O)N[C@@H](CC(C)C)C(=O)N[C@@H](CC(C)C)C(=O)N[C@@H](Cc1c[nH]cn1)C(=O)N[C@@H](CCC(N)=O)C(=O)N[C@@H](CCCCNC(=N)N)C(=O)N[C@@H](C)C(=O)N[C@H]1CCCCNC(=O)C[C@@H](C(N)=O)NC(=O)[C@H](CC(=O)O)NC(=O)[C@H](CC(C)C)NC(=O)[C@H](Cc2c[nH]c3ccccc23)NC1=O [SEQ ID NO: 22, H-Ac5c-Val-Aib-Glu-Ile-Gln-Leu-Leu-His-Gln-Har-Ala-Lys( )-Trp-Leu-Asp-Asp( )-NH2] (H-[Ac5c]V[Aib]EIQLLHQ[hArg]AKWLDD-NH2; lactam 13-17), the EC50 was 74.1 nM and the “Emax ± SEM” value was 1.08 ± 0.04.

CC[C@H](C)[C@H](NC(=O)[C@H](CCC(=O)O)NC(=O)C(C)(C)NC(=O)[C@@H](NC(=O)C1(N)CCCC1)C(C)C)C(=O)N[C@@H](CCC(N)=O)C(=O)N[C@@H](CC(C)C)C(=O)N[C@@H](CCSC)C(=O)N[C@@H](Cc1c[nH]cn1)C(=O)N[C@@H](CCC(N)=O)C(=O)N[C@@H](CCCCNC(=N)N)C(=O)N[C@@H](C)C(=O)N[C@H]1CCCCNC(=O)C[C@@H](C(N)=O)NC(=O)[C@H](CC(=O)O)NC(=O)[C@H](CC(C)C)NC(=O)[C@H](Cc2c[nH]c3ccccc23)NC1=O [SEQ ID NO: 23, H-Ac5c-Val-Aib-Glu-Ile-Gln-Leu-Met-His-Gln-Har-Ala-Lys( )-Trp-Leu-Asp-Asp( )-NH2] (H-[Ac5c]V[Aib]EIQLMHQ[hArg]AKWLDD-NH2; lactam 13-17) was tested, and the EC50 was 33.1 nM and the “Emax ± SEM” value was 1.16 ± 0.08.

In the case of CC[C@H](C)[C@H](NC(=O)[C@H](CCC(=O)O)NC(=O)C(C)(C)NC(=O)[C@@H](NC(=O)C1(N)CCCC1)C(C)C)C(=O)N[C@@H](CCC(N)=O)C(=O)N[C@@H](CC(C)C)C(=O)N[C@@H](CCSC)C(=O)N[C@@H](Cc1c[nH]cn1)C(=O)N[C@@H](CCC(N)=O)C(=O)N[C@@H](CCCNC(=N)N)C(=O)N[C@@H](C)C(=O)N[C@H]1CCCCNC(=O)C[C@@H](C(N)=O)NC(=O)[C@H](CC(N)=O)NC(=O)[C@H](CC(C)C)NC(=O)[C@H](Cc2c[nH]c3ccccc23)NC1=O [SEQ ID NO: 25] (H-[Ac5c]V[Aib]EIQLMHQRAKWLND-NH2; lactam 13-17), the EC50 is reported as 8.91 nM and the “Emax ± SEM” value is reported as 1.04 ± 0.03.

CC[C@H](C)[C@H](NC(=O)[C@H](CCC(=O)O)NC(=O)C(C)(C)NC(=O)[C@@H](NC(=O)C1(N)CCCC1)C(C)C)C(=O)N[C@@H](CCC(N)=O)C(=O)N[C@@H](CC(C)C)C(=O)N[C@@H](CCSC)C(=O)N[C@@H](Cc1c[nH]cn1)C(=O)N[C@@H](CCC(N)=O)C(=O)N[C@@H](CCCCNC(=N)N)C(=O)N[C@@H](C)C(=O)N[C@H]1CCCCNC(=O)C[C@@H](C(N)=O)NC(=O)[C@H](CC(N)=O)NC(=O)[C@H](CC(C)C)NC(=O)[C@H](Cc2ccccc2)NC1=O [SEQ ID NO: 26, H-Ac5c-Val-Aib-Glu-Ile-Gln-Leu-Met-His-Gln-Har-Ala-Lys( )-Phe-Leu-Asn-Asp( )-NH2] (H-[Ac5c]V[Aib]EIQLMHQ[hArg]AKFLND-NH2; lactam 13-17) was tested, and the EC50 was 12.6 nM and the “Emax ± SEM” value was 1.08 ± 0.09.

With CC[C@H](C)[C@H](NC(=O)[C@H](CCC(=O)O)NC(=O)C(C)(C)NC(=O)[C@@H](NC(=O)C1(N)CCCC1)C(C)C)C(=O)N[C@@H](CCC(N)=O)C(=O)N[C@@H](Cc1ccccc1)C(=O)N[C@@H](CC(C)C)C(=O)N[C@@H](Cc1c[nH]cn1)C(=O)N[C@@H](CCC(N)=O)C(=O)N[C@@H](CCCCNC(=N)N)C(=O)N[C@@H](C)C(=O)N[C@H]1CCCCNC(=O)C[C@@H](C(N)=O)NC(=O)[C@H](CC(N)=O)NC(=O)[C@H](CC(C)C)NC(=O)[C@H](Cc2c[nH]c3ccccc23)NC1=O [SEQ ID NO: 27, H-Ac5c-Val-Aib-Glu-Ile-Gln-Phe-Leu-His-Gln-Har-Ala-Lys( )-Trp-Leu-Asn-Asp( )-NH2] (H-[Ac5c]V[Aib]EIQFLHQ[hArg]AKWLND-NH2; lactam 13-17) the EC50 was 12.3 nM and the “Emax ± SEM” value was 0.92 ± 0.06.

For CC[C@H](C)[C@H](NC(=O)[C@H](CCC(=O)O)NC(=O)C(C)(C)NC(=O)[C@@H](NC(=O)C1(N)CCCC1)C(C)C)C(=O)N[C@@H](CCC(N)=O)C(=O)N[C@@H](CC(C)C)C(=O)N[C@@H](CC(C)C)C(=O)N[C@@H](Cc1c[nH]cn1)C(=O)N[C@@H](CCC(N)=O)C(=O)N[C@@H](CCCCNC(=N)N)C(=O)N[C@@H](CCCNC(=N)N)C(=O)N[C@H]1CCCCNC(=O)C[C@@H](C(N)=O)NC(=O)[C@H](CC(N)=O)NC(=O)[C@H](CC(C)C)NC(=O)[C@H](Cc2c[nH]c3ccccc23)NC1=O [SEQ ID NO: 28, H-Ac5c-Val-Aib-Glu-Ile-Gln-Leu-Leu-His-Gln-Har-Arg-Lys( )-Trp-Leu-Asn-Asp( )-NH2] (H-[Ac5c]V[Aib]EIQLLHQ[hArg]RKWLND-NH2; lactam 13-17), the EC50 was 5.37 nM and the “Emax ± SEM” value was 0.95 ± 0.06.

In the case of CC[C@H](C)[C@H](NC(=O)[C@H](CCC(=O)O)NC(=O)C(C)(C)NC(=O)[C@@H](NC(=O)C1(N)CCCC1)C(C)C)C(=O)N[C@@H](CCC(=O)O)C(=O)N[C@@H](CC(C)C)C(=O)N[C@@H](CC(C)C)C(=O)N[C@@H](Cc1c[nH]cn1)C(=O)N[C@@H](CCC(N)=O)C(=O)N[C@@H](CCCCNC(=N)N)C(=O)N[C@@H](C)C(=O)N[C@H]1CCCCNC(=O)C[C@@H](C(N)=O)NC(=O)[C@H](CC(N)=O)NC(=O)[C@H](CC(C)C)NC(=O)[C@H](Cc2c[nH]c3ccccc23)NC1=O [SEQ ID NO: 29, H-Ac5c-Val-Aib-Glu-Ile-Glu-Leu-Leu-His-Gln-Har-Ala-Lys( )-Trp-Leu-Asn-Asp( )-NH2] (H-[Ac5c]V[Aib]EIELLHQ[hArg]AKWLND-NH2; lactam 13-17), the EC50 is reported as 112 nM and the “Emax ± SEM” value is reported as 1.27 ± 0.20.
